Test results published in BindingDB's records for doi:10.1016/0960-894X(95)00509-R (1995).

Target: Platelet-activating factor receptor (Oryctolagus cuniculus)
Test: Tested in vitro for antagonistic activity to displace [3H]PAF from rabbit platelet membrane PAF receptors

SMILES	Ki
CN(C)C(=O)n1cc(C(=O)c2ccn3c2CSC3c2cccnc2)c2ccc(-c3ccccc3)cc21 (stereo not given) [6-Phenyl-3-(3-pyridin-3-yl-1H-pyrrolo[1,2-c]thiazole-7-carbonyl)-indole-1-carboxylic acid dimethylamide]	23 nM
O=C(c1ccn2c1CSC2c1cccnc1)c1c[nH]c2cccc(O)c12 (stereo not given) [(4-Hydroxy-1H-indol-3-yl)-(3-pyridin-3-yl-1H-pyrrolo[1,2-c]thiazol-7-yl)-methanone]	327 nM
CC(C)(C)OC(=O)n1cc(C(=O)c2ccn3c2CSC3c2cccnc2)c2ccccc21 (stereo not given) [3-(3-Pyridin-3-yl-1H-pyrrolo[1,2-c]thiazole-7-carbonyl)-indole-1-carboxylic acid tert-butyl ester]	110 nM
O=C(c1ccn2c1CSC2c1cccnc1)c1c[nH]c2cc(OCc3ccccc3)ccc12 (stereo not given) [(6-Benzyloxy-1H-indol-3-yl)-(3-pyridin-3-yl-1H-pyrrolo[1,2-c]thiazol-7-yl)-methanone]	64 nM
Cn1cc(C(=O)c2ccn3c2CSC3c2cccnc2)c2ccc(-c3ccc(F)cc3)cc21 (stereo not given) [[6-(4-Fluoro-phenyl)-1-methyl-1H-indol-3-yl]-(3-pyridin-3-yl-1H-pyrrolo[1,2-c]thiazol-7-yl)-methanone]	7 nM
O=C(c1ccn2c1CSC2c1cccnc1)c1c[nH]c2ccc(OCc3ccccc3)cc12 (stereo not given) [(5-Benzyloxy-1H-indol-3-yl)-(3-pyridin-3-yl-1H-pyrrolo[1,2-c]thiazol-7-yl)-methanone]	180 nM
CN(C)C(=O)Cn1cc(C(=O)c2ccn3c2CSC3c2cccnc2)c2ccc(-c3ccc(F)cc3)cc21 (stereo not given) [2-[6-(4-Fluoro-phenyl)-3-(3-pyridin-3-yl-1H-pyrrolo[1,2-c]thiazole-7-carbonyl)-indol-1-yl]-N,N-dimethyl-acetamide]	0.7 nM
O=C(c1ccn2c1CSC2c1cccnc1)c1c[nH]c2cc(-c3ccc(F)cc3)ccc12 (stereo not given) [[6-(4-Fluoro-phenyl)-1H-indol-3-yl]-(3-pyridin-3-yl-1H-pyrrolo[1,2-c]thiazol-7-yl)-methanone]	75 nM
CN(C)C(=O)n1cc(C(=O)c2ccn3c2CSC3c2cccnc2)c2ccc(Cc3ccccc3)cc21 (stereo not given) [6-Benzyl-3-(3-pyridin-3-yl-1H-pyrrolo[1,2-c]thiazole-7-carbonyl)-indole-1-carboxylic acid dimethylamide]	13 nM
CN(C)C(=O)n1cc(C(=O)c2ccn3c2CSC3c2cccnc2)c2cc(OCc3ccccc3)ccc21 (stereo not given) [5-Benzyloxy-3-(3-pyridin-3-yl-1H-pyrrolo[1,2-c]thiazole-7-carbonyl)-indole-1-carboxylic acid dimethylamide]	120 nM
CCNC(=O)n1cc(C(=O)c2ccn3c2CSC3c2cccnc2)c2ccc(-c3ccc(F)cc3)cc21 (stereo not given) [6-(4-Fluoro-phenyl)-3-(3-pyridin-3-yl-1H-pyrrolo[1,2-c]thiazole-7-carbonyl)-indole-1-carboxylic acid ethylamide]	19 nM
O=C(c1ccn2c1CSC2c1cccnc1)c1c[nH]c2c(OCc3ccccc3)cccc12 (stereo not given) [(7-Benzyloxy-1H-indol-3-yl)-(3-pyridin-3-yl-1H-pyrrolo[1,2-c]thiazol-7-yl)-methanone]	90 nM
O=C(c1ccn2c1CSC2c1cccnc1)c1cn(C(=O)N2CCOCC2)c2ccccc12 (stereo not given) [Morpholin-4-yl-[3-(3-pyridin-3-yl-1H-pyrrolo[1,2-c]thiazole-7-carbonyl)-indol-1-yl]-methanone]	225 nM
CN(C)C(=O)n1cc(C(=O)c2ccn3c2CSC3c2cccnc2)c2ccc(Sc3ccc(F)cc3)cc21 (stereo not given) [6-(4-Fluoro-phenylsulfanyl)-3-(3-pyridin-3-yl-1H-pyrrolo[1,2-c]thiazole-7-carbonyl)-indole-1-carboxylic acid dimethylamide]	17 nM
CN(C)C(=O)n1cc(C(=O)c2ccn3c2CSC3c2cccnc2)c2ccc(Oc3ccc(F)cc3)cc21 (stereo not given) [6-(4-Fluoro-phenoxy)-3-(3-pyridin-3-yl-1H-pyrrolo[1,2-c]thiazole-7-carbonyl)-indole-1-carboxylic acid dimethylamide]	1.7 nM
CN(C)C(=O)n1cc(C(=O)c2ccn3c2CSC3c2cccnc2)c2ccccc21 (stereo not given) [3-(3-Pyridin-3-yl-1H-pyrrolo[1,2-c]thiazole-7-carbonyl)-indole-1-carboxylic acid dimethylamide]	95 nM
NC(=O)n1cc(C(=O)c2ccn3c2CSC3c2cccnc2)c2ccc(-c3ccc(F)cc3)cc21 (stereo not given) [6-(4-Fluoro-phenyl)-3-(3-pyridin-3-yl-1H-pyrrolo[1,2-c]thiazole-7-carbonyl)-indole-1-carboxylic acid amide]	6 nM
NNC(=O)n1cc(C(=O)c2ccn3c2CSC3c2cccnc2)c2ccc(-c3ccc(F)cc3)cc21 (stereo not given) [6-(4-Fluoro-phenyl)-3-(3-pyridin-3-yl-1H-pyrrolo[1,2-c]thiazole-7-carbonyl)-indole-1-carboxylic acid hydrazide]	25 nM
CN(C)C(=O)n1cc(C(=O)c2ccn3c2CSC3c2cccnc2)c2ccc(Cl)cc21 (stereo not given) [6-Chloro-3-(3-pyridin-3-yl-1H-pyrrolo[1,2-c]thiazole-7-carbonyl)-indole-1-carboxylic acid dimethylamide]	89 nM
CN(C)C(=O)n1cc(C(=O)c2ccn3c2CSC3c2cccnc2)c2ccc(OCc3ccccc3)cc21 (stereo not given) [6-Benzyloxy-3-(3-pyridin-3-yl-1H-pyrrolo[1,2-c]thiazole-7-carbonyl)-indole-1-carboxylic acid dimethylamide]	17 nM
